Measured values taken from US10814010B2, “FOXC2 inhibitor and methods of use thereof” (The Board of Regents of The University of Texas System, priority 2018, dated 2020).
pEC50: −log10 of the molar value.

Legend:
PC3 cells = assay: MTT cell viability assay, PC3; assay type: cell-based
From the text: Inhibition of EMT in CRPC could lead to a new form of therapeutics to aid once androgen-independence is achieved. However, in order for MC-1-F2 to be considered an effective chemotherapeutic agent, its EC50 in prostate cancer needed to be determined as well as how it compares to other chemotherapeutic agents on the market and whether it is able to inhibit chemoresistance or lower the sensitivity of CRPC to commercially available drugs. In order to determine the EC50 of MC-1-F2, an MTT assay on cell viability was performed in both DU145 and PC3. […] These doses are higher than those encountered with breast cancer cell lines. This is most likely due to the lower FOXC2 expression levels founds in prostate cell lines when compared to the breast cell lines.
(§1) Cell viability was assessed by MTT (3-(4,5-Dimethylthiazol-2-yl)-2,5-Diphenyltetrazolium Bromide) assay 5,000 cells were seeded on a 96-well cell culture plate and were incubated for at least 24 hours prior to drug treatment. The MTT reagent (Fisher Scientific) was added to the culture medium 3 hours prior to the end of compound incubation. The reaction took place in the 37° C. incubator with 5% CO2 for 3 hours. Cell culture medium was then removed from the wells. Cells with the insoluble purple formazan were lysed with DMSO for 10 mins at room temperature, 200 μL per well. Absorbance was read at 570 nm using a plate reader.

DU145 cells = assay: MTT cell viability assay, DU145; assay type: cell-based; settings: single agent
Description: In order to determine the EC50 of MC-1-F2, an MTT assay on cell viability was performed in both DU145 and PC3.
as §1

Structure (SMILES) | effect on cell viability (PC3 cells; single agent) | effect on cell viability (DU145 cells) | pEC50 (PC3 cells; Homo sapiens, PC-3, single agent)
CNC(=O)c1ccc(N2C(=S)N(c3ccc(C#N)c(C(F)(F)F)c3)C(=O)C2(C)C)cc1F [Enzalutamide, reference compound] | no effect | no effect | 
CC(=O)O[C@@]12CO[C@@H]1C[C@H](O)[C@@]1(C)C(=O)[C@H](O)C3=C(C)[C@@H](OC(=O)[C@H](O)[C@@H](NC(=O)OC(C)(C)C)c4ccccc4)C[C@@](O)([C@@H](OC(=O)c4ccccc4)[C@H]21)C3(C)C [docetaxel] |  |  | 8.12
